For 13 compounds, GI50 and TGI results are on record in PubChem BioAssay (NCI).

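Growth conditions: 96-well plates. Treatment: test compound, 48 hours, 5 concentrations. Analysis: linear interpolation between bracketing concentrations; unreached endpoints set to highest concentration. At the GI50, growth is halved. TGI denotes the concentration required for complete inhibition of growth.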 Some results are limits rather than exact numbers.

Among the test systems are 786-0 renal; A498 renal; DU-145 prostate; LOX IMVI melanoma; OVCAR-3 ovarian; PC-3 prostate; SF-295 CNS; SK-MEL-28 melanoma; SK-MEL-5 melanoma; SN12C renal.
What all share (experiment): NCI tumour cell line growth inhibition, 48 h

As to `Cc1cc2c(C(C)C)c(O)c(O)cc2c(O)c1-c1c(C)cc2c(C(C)C)c(O)c(O)cc2c1O`, the GI50 was 16.7 µM in the experiment on 786-0 renal; 14.1 µM in the experiment on A498 renal; 22 µM in the experiment on DU-145 prostate; 4.42 µM in the experiment with LOX IMVI melanoma; 14.4 µM in the experiment with OVCAR-3 ovarian; 12.4 µM in the experiment with PC-3 prostate. The GI50 was 22.5 µM in the experiment with SF-295 CNS, 16.8 µM in the experiment on SK-MEL-28 melanoma, 12.6 µM with SK-MEL-5 melanoma and 8.03 µM in the experiment on SN12C renal. The TGI in the experiment with 786-0 renal came out at 33.9 µM; in the experiment on A498 renal, 32.2 µM; in the experiment on DU-145 prostate, 78 µM; with LOX IMVI melanoma, 16.2 µM; in the experiment on OVCAR-3 ovarian it was 29.8 µM; with PC-3 prostate, 27.7 µM. The TGI with SF-295 CNS is 58 µM; with SK-MEL-28 melanoma, 32.8 µM; in the experiment on SK-MEL-5 melanoma it was 26 µM; in the experiment on SN12C renal, 20.6 µM.

For the compound `CC(=O)N1CC(C)(C)c2c(C)c(O)c(C)c(C)c21`, the TGI in the experiment with 786-0 renal, in the experiment with A498 renal, with DU-145 prostate, with LOX IMVI melanoma, in the experiment with OVCAR-3 ovarian and in the experiment on PC-3 prostate was more than 100 µM in each case. Also, the TGI with SF-295 CNS, with SK-MEL-28 melanoma, in the experiment with SK-MEL-5 melanoma and in the experiment on SN12C renal was more than 100 µM each time.

For `O=C1/C(=C/c2ccccc2)CN(C(=O)CCN2CCOCC2)C/C1=C\c1ccccc1`, the TGI amounted to 3.98 µM with 786-0 renal; 25.5 µM in the experiment on A498 renal; 29.5 µM in the experiment on DU-145 prostate; 2.21 µM with LOX IMVI melanoma; 11.5 µM in the experiment with OVCAR-3 ovarian; 8.51 µM in the experiment with PC-3 prostate. For the same compound, the TGI in the experiment on SF-295 CNS stood at 6.86 µM; in the experiment on SK-MEL-28 melanoma, 3.41 µM; with SK-MEL-5 melanoma it was 4.99 µM; in the experiment with SN12C renal, 4.55 µM.

`O=C1CCCCCCCCCCC1CN1CCCC1` (stereo not given): the TGI with 786-0 renal is 44.7 µM; in the experiment with A498 renal, more than 100 µM; in the experiment on DU-145 prostate, more than 100 µM; in the experiment with LOX IMVI melanoma, 70.7 µM; in the experiment with OVCAR-3 ovarian, more than 100 µM; with PC-3 prostate it was more than 100 µM. For the same compound, the TGI is 86.3 µM in the experiment on SF-295 CNS, 55.6 µM with SK-MEL-28 melanoma, 31.6 µM in the experiment on SK-MEL-5 melanoma and more than 100 µM in the experiment on SN12C renal.

Regarding `Cn1ncnc1[C@H]1c2n[nH]c(=O)c3cc(F)cc(c23)N[C@@H]1c1ccc(F)cc1`, the GI50 was more than 100 µM in the experiment with 786-0 renal; 28.6 µM in the experiment on A498 renal; 3.59 µM in the experiment with DU-145 prostate; 4.75 µM in the experiment on LOX IMVI melanoma; more than 100 µM in the experiment on OVCAR-3 ovarian; more than 100 µM in the experiment on PC-3 prostate. Moreover, the GI50 is 0.44 µM in the experiment on SF-295 CNS, more than 100 µM with SK-MEL-28 melanoma, more than 100 µM in the experiment with SK-MEL-5 melanoma and 3.26 µM with SN12C renal. Besides, the TGI with 786-0 renal, with A498 renal, in the experiment with DU-145 prostate, in the experiment on LOX IMVI melanoma, with OVCAR-3 ovarian and with PC-3 prostate was more than 100 µM throughout. For the same compound, the TGI is more than 19.9 µM with SF-295 CNS, more than 100 µM in the experiment with SK-MEL-28 melanoma, more than 100 µM in the experiment with SK-MEL-5 melanoma and more than 100 µM with SN12C renal.

For `O=C(/C=C/Sc1cc(C(F)(F)F)cc(C(F)(F)F)c1)c1ccc(Cl)cc1`, the GI50 in the experiment with 786-0 renal was 2.66 µM; with A498 renal, 15.9 µM; in the experiment with DU-145 prostate, 12.3 µM; in the experiment on LOX IMVI melanoma, 1.43 µM; with OVCAR-3 ovarian, 1.48 µM; in the experiment on PC-3 prostate, 2.42 µM. Also, the GI50 with SF-295 CNS was 13.6 µM; with SK-MEL-28 melanoma, 4.74 µM; in the experiment with SK-MEL-5 melanoma it was 17.4 µM; with SN12C renal, 1.71 µM. Besides, the TGI stood at 9.84 µM in the experiment with 786-0 renal; 29.3 µM in the experiment with A498 renal; 25.1 µM in the experiment on DU-145 prostate; 2.73 µM in the experiment on LOX IMVI melanoma; 4.19 µM in the experiment with OVCAR-3 ovarian; 5.97 µM with PC-3 prostate. For the same compound, the TGI was determined as 29.6 µM in the experiment with SF-295 CNS, 17.1 µM with SK-MEL-28 melanoma, 32.9 µM in the experiment on SK-MEL-5 melanoma and 3.46 µM with SN12C renal.

Take `COc1cc2nc(N3CCCC3)nc(NCc3ccccc3)c2cc1OC`: the GI50 with 786-0 renal is 1.65 µM; in the experiment with A498 renal it was 2.16 µM; in the experiment with DU-145 prostate, 4.62 µM; in the experiment on LOX IMVI melanoma, 1.71 µM; in the experiment on OVCAR-3 ovarian, 2.27 µM; in the experiment on PC-3 prostate, 3.08 µM. Moreover, the GI50 in the experiment with SF-295 CNS was 1.84 µM; in the experiment with SK-MEL-28 melanoma, 1.75 µM; in the experiment with SK-MEL-5 melanoma, 1.65 µM; in the experiment on SN12C renal it was 8.09 µM. The TGI was determined as 3.07 µM in the experiment on 786-0 renal; 8.56 µM with A498 renal; 16.5 µM in the experiment on DU-145 prostate; 3.36 µM with LOX IMVI melanoma; 5.53 µM with OVCAR-3 ovarian; 15.2 µM in the experiment on PC-3 prostate. The TGI with SF-295 CNS was 3.46 µM; in the experiment with SK-MEL-28 melanoma, 3.19 µM; with SK-MEL-5 melanoma it was 3.12 µM; with SN12C renal, 21.7 µM.

As to `COc1cc(C(=O)c2c(-c3ccccc3)oc3c(OC)cccc23)cc(OC)c1OC`, the GI50 with 786-0 renal is 0.073 µM; with A498 renal, 0.0212 µM; with DU-145 prostate, 0.125 µM; with LOX IMVI melanoma, 0.0536 µM; in the experiment with OVCAR-3 ovarian, 0.0346 µM; in the experiment with PC-3 prostate, 0.0557 µM. Also, the GI50 with SF-295 CNS is 0.0363 µM; in the experiment on SK-MEL-28 melanoma it was 13.8 µM; with SK-MEL-5 melanoma, 0.157 µM; in the experiment with SN12C renal it was 0.257 µM. The TGI with 786-0 renal was 3.1 µM; in the experiment on A498 renal, 0.0696 µM; in the experiment with DU-145 prostate it was more than 65.6 µM; in the experiment with LOX IMVI melanoma it was more than 100 µM; in the experiment on OVCAR-3 ovarian, 0.363 µM; with PC-3 prostate it was more than 100 µM. Moreover, the TGI is 1.96 µM in the experiment with SF-295 CNS, more than 100 µM with SK-MEL-28 melanoma, 0.733 µM in the experiment on SK-MEL-5 melanoma and more than 100 µM with SN12C renal.

On to `C=CCN=C(N/N=C/c1ccc([N+](=O)[O-])o1)NS(=O)(=O)c1cc(C(=O)Nc2ccc(Cl)cc2)c(Cl)cc1SC`, for which the GI50 in the experiment on 786-0 renal was 6.94 µM; with A498 renal, 28.5 µM; in the experiment on DU-145 prostate it was 2.72 µM; in the experiment on LOX IMVI melanoma, more than 64.1 µM; in the experiment with OVCAR-3 ovarian, 1.57 µM; in the experiment on PC-3 prostate, 2.13 µM. Besides, the GI50 with SF-295 CNS was more than 100 µM; in the experiment with SK-MEL-28 melanoma, 25.9 µM; in the experiment on SK-MEL-5 melanoma, 2.14 µM; in the experiment on SN12C renal, 2.63 µM. The TGI in the experiment with 786-0 renal is more than 100 µM; with A498 renal, more than 100 µM; with DU-145 prostate, more than 35.2 µM; in the experiment with LOX IMVI melanoma it was more than 100 µM; in the experiment on OVCAR-3 ovarian, 14.1 µM; with PC-3 prostate, more than 100 µM. Further, the TGI in the experiment with SF-295 CNS was more than 100 µM; in the experiment with SK-MEL-28 melanoma it was more than 100 µM; in the experiment with SK-MEL-5 melanoma it was 4.82 µM; in the experiment on SN12C renal, more than 100 µM.

`O=C(C/C(=N/O)C(=O)NC1=C(Cl)C(=O)c2ccccc2C1=O)CC(c1ccccc1)c1c(O)c2ccccc2oc1=O` (stereo not given): the TGI is more than 100 µM in the experiment on 786-0 renal; more than 100 µM with A498 renal; 11.2 µM in the experiment with DU-145 prostate; more than 100 µM with LOX IMVI melanoma; 15.2 µM in the experiment with OVCAR-3 ovarian; more than 100 µM in the experiment with PC-3 prostate. Besides, the TGI with SF-295 CNS is 22.8 µM; in the experiment on SK-MEL-28 melanoma, more than 100 µM; in the experiment on SK-MEL-5 melanoma, 2.38 µM; with SN12C renal, 23.5 µM.

With `Cc1cc(NCCCN(C)C)c2ccc3c(ccc4c(NCCCN(C)C)cc(C)nc43)c2n1`, the GI50 is 0.202 µM in the experiment with 786-0 renal; 0.189 µM with A498 renal; 0.159 µM with DU-145 prostate; 0.176 µM with LOX IMVI melanoma; 0.191 µM with OVCAR-3 ovarian; 0.199 µM in the experiment on PC-3 prostate. For the same compound, the GI50 in the experiment on SF-295 CNS was 0.205 µM; with SK-MEL-28 melanoma, 0.187 µM; in the experiment with SK-MEL-5 melanoma, 0.275 µM; in the experiment with SN12C renal, 0.157 µM. Moreover, the TGI stood at 0.506 µM with 786-0 renal; 0.409 µM with A498 renal; 0.436 µM with DU-145 prostate; 0.401 µM in the experiment with LOX IMVI melanoma; 0.444 µM in the experiment with OVCAR-3 ovarian; 0.609 µM in the experiment with PC-3 prostate. The TGI in the experiment on SF-295 CNS came to 0.745 µM; with SK-MEL-28 melanoma it was 0.413 µM; in the experiment on SK-MEL-5 melanoma it was 0.945 µM; with SN12C renal, 0.553 µM.

In the case of `Cc1cc2c(cc1Cl)SC1=NN(C)C(C)N1S2(=O)=O` (stereo not given), the GI50 with 786-0 renal, in the experiment on A498 renal, in the experiment with DU-145 prostate, in the experiment with LOX IMVI melanoma, with OVCAR-3 ovarian and in the experiment with PC-3 prostate was more than 100 µM each time. Moreover, the GI50 in the experiment on SF-295 CNS, in the experiment on SK-MEL-28 melanoma, in the experiment with SK-MEL-5 melanoma and in the experiment on SN12C renal was more than 100 µM in each case. Besides, the TGI in the experiment with 786-0 renal, in the experiment on A498 renal, in the experiment on DU-145 prostate, in the experiment with LOX IMVI melanoma, in the experiment with OVCAR-3 ovarian and in the experiment with PC-3 prostate was more than 100 µM throughout. Moreover, the TGI with SF-295 CNS, in the experiment with SK-MEL-28 melanoma, in the experiment with SK-MEL-5 melanoma and in the experiment with SN12C renal was more than 100 µM throughout.

As to `CC(C)CCCC(C)[C@H]1CCC2[C@@H]3CCC4Cc5nc6c(nc5C[C@]4(C)C3CC[C@@]21C)CC1CC[C@@H]2C(CC[C@@]3(C)C2CC[C@@H]3C(C)CCCC(C)C)[C@@]1(C)C6` (stereo not given in full), the TGI in the experiment on 786-0 renal, with A498 renal, with DU-145 prostate, with LOX IMVI melanoma, in the experiment on OVCAR-3 ovarian and in the experiment with PC-3 prostate was more than 100 µM throughout. Moreover, the TGI in the experiment on SF-295 CNS, with SK-MEL-28 melanoma, with SK-MEL-5 melanoma and in the experiment with SN12C renal was more than 100 µM each time.
